Data taken from patent publication EP4706655A1, “PREVENTIVE OR THERAPEUTIC AGENT FOR NEURODEGENERATIVE DISEASE” (Medilabo RFP, Inc., priority 2023, dated 2024).

Key:
BDNF = experiment: Expression of BDNF in the mouse brains; type: in vivo; settings: stated in the discussion only; no method, dose or data given
PKR = experiment: Immunohistochemical analysis of phospho-PKR (Thr446) (Test Example 2); type: in vivo, mice; settings: prefrontal cortex; nasal, single agent 0.04 mg/day, 1 month
Procedure: (§1) Age-matched non-Tg rat mates received only CMC.
(§2) After the behavioral test, each group was divided into two groups: one for immunohistochemical analysis and the other for future biochemical analysis. Immunohistochemical staining was performed as described above. For staining of double-stranded RNA-dependent protein kinase (PKR), phosphorylated TDP-43, synaptophysin, sections were boiled in 10 mM citrate buffer solution (pH6) for 30 min to expose the antigens. The sections were blocked overnight with 10% calf serum, and then the resultant sections were stained with antibodies for DNA/RNA G-quadruplex (BG4; Absolute antibody, Cleveland, UK), phospho-PKR (Thr446) (MilliporeSigma, Burlington, MA, USA), poly-GA, poly-GP (Cosmo Bio Co., Ltd., Tokyo, Japan), pSer409/410-TDP-43 (Cosmo Bio Co., Ltd.), and synaptophysin (SVP-38; Sigma-Aldrich, St. Luis, MO, USA). Only synaptophysin was stained with a biotin-labeled secondary antibody (Vector Laboratories, Burlingame, CA, USA), a horseradish peroxidase (HRP) -labeled avidin-biotin complex (Vector Laboratories), HRP substrate, diaminobenzidine (DAB), or an FITC-labeled secondary antibody (The Jackson Laboratory). […] Neuropathologies were evaluated by measuring the staining intensity or area or by counting positive puncta or cells in a constant area in each photograph using NIH ImageJ software.

FTD/ALS model mice [1] = experiment: Morris water maze test (Test Example 2); type: in vivo; settings: 7- to 8-month-old mice; nasal, single agent 0.04 mg/day, 1 month
From the text: FVB/NJ-Tg(C9orf72)500Lpwr/J mice (FTD/ALS model mice) were purchased from The Jackson Laboratory (Bar Harbor, ME, USA). The mouse strain was generated as a model for the C9orf72-associated FTD/ALS expressing the human C9orf72 gene with about 500 hexanucleotide ([…]) repeats using a bacterial artificial chromosome (BAC) vector. Transgenic (Tg) mice were crossed with wild-type FVB/NJc1 mice, and the transgene was maintained as a heterozygote at our animal facility. […] Louis, MO) and trans-resveratrol (Sigma-Aldrich) were dissolved in 0.5% low-viscosity CMC (Sigma-Aldrich) at 4 mg/mL. […] Age-matched non-Tg […] mates received only CMC. After administration for one month, the cognitive function of the mice was assessed in the Morris water maze test as described above.

FTD/ALS model mice [2] = experiment: Immunohistochemical analysis of brain sections (Test Example 2); type: in vivo; settings: nasal, single agent 0.04 mg/day, 1 month
From the text: FVB/NJ-Tg(C9orf72)500Lpwr/J mice (FTD/ALS model mice) were purchased from The Jackson Laboratory (Bar Harbor, ME, USA). The mouse strain was generated as a model for the C9orf72-associated FTD/ALS expressing the human C9orf72 gene with about 500 hexanucleotide (GGGGCC) repeats using a bacterial artificial chromosome (BAC) vector. Transgenic (Tg) mice were crossed with wild-type FVB/NJc1 mice, and the transgene was maintained as a heterozygote at our animal facility.
as §1, §2

`Oc1ccc(/C=C/c2cc(O)cc(O)c2)cc1` [resveratrol, 3,5,4'-trihydroxy-trans-stilbene] was tested, and the “expression of BDNF in the mouse brains” value (BDNF) was “elicited”, the “levels of phosphorylated PKR” value (PKR) was “significantly reduced” and the “cognitive function of FTD/ALS model mice” value (FTD/ALS model mice [1]) was “significantly improved”. For the same molecule, the “relative strength of the reduction of prefrontal cortex pathologies (G-quadruplex, phosphorylated PKR, poly-GA, poly-GP, phosphorylated TDP-43)” value (FTD/ALS model mice [2]; comparison among treatment groups) was “strongest effect”, the “synaptic loss (synaptophysin levels) in the DG” value (FTD/ALS model mice [2]; dentate gyrus) was “significantly restored synaptic loss” and the “synaptic loss (synaptophysin levels) in the CA2-3 region” value (FTD/ALS model mice [2]; hippocampus) was “significantly restored synaptic loss”. For the same molecule, the “levels of G-quadruplex” value (FTD/ALS model mice [2]; prefrontal cortex) was “significantly reduced”, the “levels of phosphorylated TDP-43” value (FTD/ALS model mice [2]; prefrontal cortex) was “significantly reduced” and the “levels of poly-GA” value (FTD/ALS model mice [2]; prefrontal cortex) was “significantly reduced”. For the same molecule, the “levels of poly-GP” value (FTD/ALS model mice [2]; prefrontal cortex) was “significantly reduced”.
